Measurements from ChEMBL document CHEMBL4837239, “Identification of Thieno[3,2-d]pyrimidine Derivatives as Dual Inhibitors of Focal Adhesion Kinase and FMS-like Tyrosine Kinase 3” (J Med Chem, 2021).
Active and inactive are the calls of the source. The calls are words filed in the database; no cut-off is given here.

What was measured:
HCT-116 = assay: Antiproliferative activity against human HCT-116 cells assessed as growth inhibition measured after 72 hrs by CellTiter-Glo assay; format: functional; conditions: Homo sapiens, HCT-116
MDA-MB-231 = assay: Antiproliferative activity against human MDA-MB-231 cells assessed as growth inhibition measured after 72 hrs by CellTiter-Glo assay; format: functional; conditions: Homo sapiens, MDA-MB-231
A375P = assay: (§1) Antiproliferative activity against human A375P cells assessed as growth inhibition measured after 72 hrs by CellTiter-Glo assay; format: functional
Focal adhesion kinase 1 = Focal adhesion kinase 1 (Homo sapiens, UniProt Q05397); assay: Inhibition of recombinant FAK (unknown origin) by radiometric kinase assay
Sequence of Focal adhesion kinase 1 (Q05397 whole entry): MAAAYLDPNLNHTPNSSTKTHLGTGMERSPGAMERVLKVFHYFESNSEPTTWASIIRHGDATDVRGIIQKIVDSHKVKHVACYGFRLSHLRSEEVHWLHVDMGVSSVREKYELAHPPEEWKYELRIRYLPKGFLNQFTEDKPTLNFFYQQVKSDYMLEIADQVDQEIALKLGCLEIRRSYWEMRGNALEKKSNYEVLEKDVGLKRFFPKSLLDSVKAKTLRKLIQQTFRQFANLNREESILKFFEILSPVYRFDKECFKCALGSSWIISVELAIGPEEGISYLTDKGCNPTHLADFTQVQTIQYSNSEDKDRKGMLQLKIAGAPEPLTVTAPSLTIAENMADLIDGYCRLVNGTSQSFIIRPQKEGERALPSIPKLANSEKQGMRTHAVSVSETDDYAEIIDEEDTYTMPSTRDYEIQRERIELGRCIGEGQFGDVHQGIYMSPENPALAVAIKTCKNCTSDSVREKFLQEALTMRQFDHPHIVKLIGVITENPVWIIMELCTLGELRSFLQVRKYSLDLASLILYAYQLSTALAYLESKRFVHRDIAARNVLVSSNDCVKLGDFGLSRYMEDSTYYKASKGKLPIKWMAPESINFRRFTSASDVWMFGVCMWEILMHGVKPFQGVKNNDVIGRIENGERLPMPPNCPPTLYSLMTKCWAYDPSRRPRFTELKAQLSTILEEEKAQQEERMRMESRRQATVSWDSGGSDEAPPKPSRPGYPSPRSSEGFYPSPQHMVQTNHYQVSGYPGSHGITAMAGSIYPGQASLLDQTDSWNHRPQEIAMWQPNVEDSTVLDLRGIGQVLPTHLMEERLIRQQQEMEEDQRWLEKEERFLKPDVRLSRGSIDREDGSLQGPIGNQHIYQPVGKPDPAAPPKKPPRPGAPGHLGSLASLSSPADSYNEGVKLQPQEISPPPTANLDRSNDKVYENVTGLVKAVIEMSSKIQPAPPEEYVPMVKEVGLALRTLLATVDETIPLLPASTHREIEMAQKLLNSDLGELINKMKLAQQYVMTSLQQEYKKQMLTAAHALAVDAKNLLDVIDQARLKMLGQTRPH

[1] = as §1; format: functional; conditions: Homo sapiens, A375P
[2] = Metabolic stability in human liver microsomes assessed as compound remaining at 1 uM measured after 1 hr; format: ADME, Microsome; conditions: read-out: Stabilty
CYP1A2 = molecular target: T1, CYP1A2 (Homo sapiens, UniProt P05177); assay: Inhibition of CYP1A2 (unknown origin) at 10 uM relative to control; format: ADME
T1 sequence (P05177 whole entry): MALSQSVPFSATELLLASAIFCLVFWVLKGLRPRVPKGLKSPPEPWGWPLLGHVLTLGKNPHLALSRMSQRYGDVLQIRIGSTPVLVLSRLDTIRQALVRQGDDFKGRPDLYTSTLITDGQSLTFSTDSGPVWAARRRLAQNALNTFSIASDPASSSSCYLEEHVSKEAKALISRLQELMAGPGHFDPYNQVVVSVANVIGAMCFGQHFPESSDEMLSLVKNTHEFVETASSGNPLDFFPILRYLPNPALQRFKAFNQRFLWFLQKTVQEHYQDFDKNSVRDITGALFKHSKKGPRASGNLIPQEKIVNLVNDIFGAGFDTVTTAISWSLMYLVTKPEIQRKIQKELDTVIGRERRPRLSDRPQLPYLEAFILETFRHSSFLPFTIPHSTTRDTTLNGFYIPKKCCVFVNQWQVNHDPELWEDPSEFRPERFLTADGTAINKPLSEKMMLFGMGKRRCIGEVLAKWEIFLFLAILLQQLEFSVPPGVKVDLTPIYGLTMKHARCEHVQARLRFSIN

CYP2C9 = CYP2C9 (Homo sapiens, UniProt P11712); assay: Inhibition of CYP2C9 (unknown origin) at 10 uM relative to control; format: ADME
Sequence of CYP2C9 (P11712 whole entry): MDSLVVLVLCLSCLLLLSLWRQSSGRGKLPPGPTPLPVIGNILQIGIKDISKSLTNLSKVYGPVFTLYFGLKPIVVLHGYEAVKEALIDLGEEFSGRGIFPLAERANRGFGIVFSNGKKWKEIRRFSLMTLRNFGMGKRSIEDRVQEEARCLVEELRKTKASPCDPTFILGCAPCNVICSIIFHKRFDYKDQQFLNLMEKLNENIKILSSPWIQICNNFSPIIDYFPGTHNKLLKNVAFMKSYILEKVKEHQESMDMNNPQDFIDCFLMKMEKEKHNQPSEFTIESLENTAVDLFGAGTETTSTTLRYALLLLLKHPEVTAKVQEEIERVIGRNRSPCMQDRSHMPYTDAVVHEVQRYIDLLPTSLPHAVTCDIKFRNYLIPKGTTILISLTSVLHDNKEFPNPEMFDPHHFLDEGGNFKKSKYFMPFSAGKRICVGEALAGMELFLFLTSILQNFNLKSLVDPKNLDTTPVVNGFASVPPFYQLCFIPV

CYP2C19 = CYP2C19 (Homo sapiens, UniProt P33261); assay: Inhibition of CYP2C19 (unknown origin) at 10 uM relative to control; format: ADME
Sequence of CYP2C19 (P33261 whole entry): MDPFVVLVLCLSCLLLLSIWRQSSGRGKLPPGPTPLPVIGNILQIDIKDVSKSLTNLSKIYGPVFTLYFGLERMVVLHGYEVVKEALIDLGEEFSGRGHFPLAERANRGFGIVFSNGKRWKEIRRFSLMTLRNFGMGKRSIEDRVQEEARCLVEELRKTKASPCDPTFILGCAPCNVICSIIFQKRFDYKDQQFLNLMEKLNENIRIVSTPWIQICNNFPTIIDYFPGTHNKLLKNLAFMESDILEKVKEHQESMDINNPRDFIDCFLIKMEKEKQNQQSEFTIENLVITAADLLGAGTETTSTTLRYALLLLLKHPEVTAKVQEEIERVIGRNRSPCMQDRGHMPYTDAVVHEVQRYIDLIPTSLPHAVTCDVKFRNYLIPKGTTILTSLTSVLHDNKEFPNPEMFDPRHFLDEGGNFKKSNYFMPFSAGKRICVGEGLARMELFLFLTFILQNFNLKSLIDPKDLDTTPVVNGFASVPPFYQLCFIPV

CYP2D6 = CYP2D6 (Homo sapiens, UniProt P10635); assay: Inhibition of CYP2D6 (unknown origin) at 10 uM relative to control; format: ADME
Sequence of CYP2D6 (P10635 whole entry): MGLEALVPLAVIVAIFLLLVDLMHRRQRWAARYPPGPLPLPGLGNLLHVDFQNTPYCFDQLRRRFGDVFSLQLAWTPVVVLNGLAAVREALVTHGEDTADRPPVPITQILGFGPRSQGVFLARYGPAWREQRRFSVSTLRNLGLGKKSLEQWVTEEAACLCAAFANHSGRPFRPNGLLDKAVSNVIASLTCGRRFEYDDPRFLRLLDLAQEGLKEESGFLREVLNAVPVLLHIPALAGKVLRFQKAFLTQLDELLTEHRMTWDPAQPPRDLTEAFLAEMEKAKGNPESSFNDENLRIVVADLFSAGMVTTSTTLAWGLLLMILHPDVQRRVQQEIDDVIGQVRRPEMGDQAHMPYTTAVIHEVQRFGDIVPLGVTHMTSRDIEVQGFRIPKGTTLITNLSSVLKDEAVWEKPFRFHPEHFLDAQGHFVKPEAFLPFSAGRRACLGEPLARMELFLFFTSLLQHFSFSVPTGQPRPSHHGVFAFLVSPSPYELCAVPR

CYP3A4 = CYP3A4 (Homo sapiens, UniProt P08684); assay: Inhibition of CYP3A4 (unknown origin) at 10 uM relative to control; format: ADME
Sequence of CYP3A4 (P08684 whole entry): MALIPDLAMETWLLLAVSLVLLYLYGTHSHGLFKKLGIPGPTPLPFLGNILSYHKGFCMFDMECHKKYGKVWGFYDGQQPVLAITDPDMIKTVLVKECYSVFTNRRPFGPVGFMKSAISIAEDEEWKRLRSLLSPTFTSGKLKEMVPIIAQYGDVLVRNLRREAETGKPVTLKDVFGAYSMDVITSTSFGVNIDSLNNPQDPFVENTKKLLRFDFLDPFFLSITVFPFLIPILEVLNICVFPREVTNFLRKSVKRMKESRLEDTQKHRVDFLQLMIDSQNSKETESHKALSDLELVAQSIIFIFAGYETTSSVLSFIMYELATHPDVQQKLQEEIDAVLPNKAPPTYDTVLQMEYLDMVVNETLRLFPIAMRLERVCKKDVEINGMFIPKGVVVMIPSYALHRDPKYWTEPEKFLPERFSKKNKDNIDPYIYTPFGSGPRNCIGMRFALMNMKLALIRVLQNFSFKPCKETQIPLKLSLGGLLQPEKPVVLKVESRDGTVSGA

[3] = Inhibition of FLT3 D835Y (unknown origin); set-up: species or system Homo sapiens
BaF3 [4] = assay: Antiproliferative activity against mouse Ba/F3 cells harbouring FLT3 ITD mutant assessed as growth inhibition measured after 72 hrs by CellTiter-Glo assay; format: functional; conditions: Mus musculus, BaF3
BaF3 [5] = assay: Antiproliferative activity against mouse Ba/F3 cells harbouring FLT3 ITD D835Y mutant assessed as growth inhibition measured after 72 hrs by CellTiter-Glo assay; format: functional; conditions: Mus musculus, BaF3
BaF3 [6] = assay: Antiproliferative activity against mouse Ba/F3 cells harbouring FLT3 D835Y mutant assessed as growth inhibition measured after 72 hrs by CellTiter-Glo assay; format: functional; conditions: Mus musculus, BaF3
BaF3 [7] = assay: Antiproliferative activity against mouse Ba/F3 cells harbouring FLT3 ITD F691L mutant assessed as growth inhibition measured after 72 hrs by CellTiter-Glo assay; format: functional; conditions: Mus musculus, BaF3
BaF3 [8] = assay: Antiproliferative activity against mouse Ba/F3 cells harbouring FLT3 ITD F691I mutant assessed as growth inhibition measured after 72 hrs by CellTiter-Glo assay; format: functional; conditions: Mus musculus, BaF3
BaF3 [9] = assay: Antiproliferative activity against mouse Ba/F3 cells assessed as growth inhibition measured after 72 hrs by CellTiter-Glo assay; format: functional; conditions: Mus musculus, BaF3

SMILES | GI50 (HCT-116) [nM] | GI50 (MDA-MB-231) [nM] | GI50 (A375P) | IC50 (Focal adhesion kinase 1) [nM] | GI50 [1] [nM] | remaining at 1 h, 1 µM [2] [%] | inhibition at 10 µM (CYP1A2) [%] | inhibition at 10 µM (CYP2C9) [%] | inhibition at 10 µM (CYP2C19) [%] | inhibition at 10 µM (CYP2D6) [%] | inhibition at 10 µM (CYP3A4) [%] | IC50 [3] [nM] | GI50 (BaF3 [4]) [nM] | GI50 (BaF3 [5]) [nM] | GI50 (BaF3 [6]) [nM] | GI50 (BaF3 [7]) [nM] | GI50 (BaF3 [8]) [nM] | GI50 (BaF3 [9]) [nM]
CS(=O)(=O)Nc1cccc(-c2csc3cnc(NCCO)nc23)c1 | 55800 | 57200 | inactive | – | – | – | – | – | – | – | – | – | – | – | – | – | – | –
CS(=O)(=O)Nc1cccc(-c2csc3cnc(Nc4ccc(N5CCNCC5)cc4)nc23)c1 | 250 | 460 | – | 12 | 490 | 100 | 67.5 | 63.2 | 57.5 | 84.7 | 57.3 | < 0.5 | 7.4 | 11 | 1.6 | 103 | 183 | 550
CC(C)(C)c1cc(NC(=O)Nc2ccc(-c3cn4c(n3)sc3cc(OCCN5CCOCC5)ccc34)cc2)no1 [QUIZARTINIB] | – | – | – | – | – | – | – | – | – | – | – | – | 0.6 | 12.9 | 2.2 | 68.2 | > 10000 | > 10000
CCN1CCN(c2ccc(Nc3ncc4scc(-c5ccccn5)c4n3)cc2)CC1 | 270 | 290 | – | 12 | 420 | 54.2 | – | – | – | – | – | < 0.5 | 9.1 | 14.2 | 1.2 | 55 | 164 | 206
CCN1CCN(c2ccc(Nc3ncc4scc(-c5ccccc5)c4n3)cc2)CC1 | 1140 | 630 | – | 10 | 400 | 92.6 | 30.9 | 92.1 | 96.5 | 84.1 | 81 | < 0.5 | 10.8 | 153 | 2.2 | 67.5 | 192 | 174
CCN1CCN(c2ccc(Nc3ncc4scc(-c5ccc6ccccc6c5)c4n3)cc2)CC1 | 2060 | 1380 | inactive | 126 | – | – | – | – | – | – | – | – | – | – | – | – | – | –
CCN1CCN(c2ccc(Nc3ncc4scc(-c5cccc(OC)c5)c4n3)cc2)CC1 | 240 | 280 | – | 12 | 510 | 83.7 | 35.1 | 89.3 | 79.4 | 86.4 | 72.1 | < 0.5 | 1100 | 90.7 | 46.5 | 222 | 390 | 405
CCN1CCN(c2ccc(Nc3ncc4scc(-c5cccnc5)c4n3)cc2)CC1 | 9130 | 820 | – | 31 | 710 | 68.9 | – | – | – | – | – | < 0.5 | 20 | 28.2 | 7.1 | 140 | 299 | 596
CCN1CCN(c2ccc(Nc3ncc4scc(-c5cccc(S(=O)(=O)NC)c5)c4n3)cc2)CC1 | 170 | 420 | – | 11 | 400 | 60.2 | – | – | – | – | – | < 0.5 | 34.7 | 13.2 | 6.1 | 226 | 243 | 468
